Laboratory results as given in patent publication US7432350B2 (priority 2002, dated 2008).
Like-named read-outs stand apart in the source and are kept apart here.

How the values were obtained:
[1] = molecular target: Ustilago maydis ACCase BC domain (pCS8); experiment: 3H-soraphen saturation binding assay, pCS8; conditions: non-linear regression fit, one site, read-out: KD of the soraphen-pCS8 interaction
[2] = molecular target: full length Ustilago ACCase (pCS11); experiment: 3H-soraphen binding, full-length pCS11; parameters: species or system Ustilago maydis
[3] = tested on: Ustilago BC domain (pCS8); experiment: soraphen off-rate determination (dissociation experiments); type: binding, Ustilago maydis
Protocol: Soraphen off-rate determination. […] Therefore, soraphen dissociation experiments were performed to determine the off-rate for the binding interaction using the Ustilago BC domain (pCS8). 53.6 pmol pCS8 protein was incubated with 30 pmol ^3H-soraphen in a volume of 2 ml for 15 min. The protein with bound soraphen was separated from free soraphen on NAP5 columns and eluted in a total of 4 ml. Cold soraphen was added to 2 μM and dissociation of the bound soraphen was followed by removing 0.5 ml aliquots at various times and applying them to NAP 5 columns to again separate bound from free radiolabel. The ^3H-soraphen in the eluted fractions was quantified by liquid scintillation counting and the data were fit to the following equation: Y=Ymax*e^−k1+NS (FIG. 14).

BC domain (pCS8) = experiment: competitive binding assay with 3H-soraphen, pCS8; parameters: species or system Ustilago maydis; conditions: positive control, 1 hr incubation; protein (pCS8 or pCS11) not stated; data not shown; read-out: Ki estimate, competitor vs 3H-soraphen
Protocol: Binding assays were conducted to detect binding to the BC domain, and thus, enabled identification of test compounds. Methods of conducting binding assays are well known in the art. Direct measurement of the binding of radiolabeled ligands is typically performed by incubating numerous concentrations of radioligand with a constant amount of target peptide under equilibrium binding conditions followed by determining the amount of labeled probe specifically bound. “Specifically bound” is defined as total binding minus non-specific binding, where non-specific binding is determined in the presence of excess unlabled ligand. […] The dissociation constant of the BC domain complexes, for example for soraphen, is from about 10^−4 to about 10^−14 M, and preferably at 10^−7 M to 10^−14 M, and more preferably at least 10^−8 M to 10^−14 M, and still more preferably lower than 2×10^−9 M. Complexes can be formed by covalent or noncovalent interactions. […] A competition binding assay is performed by incubating a constant concentration of target protein and radiolabled ligand with numerous concentrations of test compounds under equilibrium conditions followed by determining the amount of radiolabeled ligand that is specifically bound.
Competitive Binding Assay. […] Bound ^3H-soraphen was then separated from unbound on NAP 5 columns and quantified by scintillation counting. […]

[4] = tested on: Phytophthora infestans ACCase BC domain (pCS15); type: binding; conditions: recombinantly expressed
[5] = tested on: Magnaporthe grisea BC domain (pCS17); type: binding
[6] = molecular target: pCS204 (wild type full length S. cerevisiae ACCase) (Saccharomyces cerevisiae, UniProt Q00955); type: biochemical
Chain of pCS204 (wild type full length S. cerevisiae ACCase) (Q00955 whole entry): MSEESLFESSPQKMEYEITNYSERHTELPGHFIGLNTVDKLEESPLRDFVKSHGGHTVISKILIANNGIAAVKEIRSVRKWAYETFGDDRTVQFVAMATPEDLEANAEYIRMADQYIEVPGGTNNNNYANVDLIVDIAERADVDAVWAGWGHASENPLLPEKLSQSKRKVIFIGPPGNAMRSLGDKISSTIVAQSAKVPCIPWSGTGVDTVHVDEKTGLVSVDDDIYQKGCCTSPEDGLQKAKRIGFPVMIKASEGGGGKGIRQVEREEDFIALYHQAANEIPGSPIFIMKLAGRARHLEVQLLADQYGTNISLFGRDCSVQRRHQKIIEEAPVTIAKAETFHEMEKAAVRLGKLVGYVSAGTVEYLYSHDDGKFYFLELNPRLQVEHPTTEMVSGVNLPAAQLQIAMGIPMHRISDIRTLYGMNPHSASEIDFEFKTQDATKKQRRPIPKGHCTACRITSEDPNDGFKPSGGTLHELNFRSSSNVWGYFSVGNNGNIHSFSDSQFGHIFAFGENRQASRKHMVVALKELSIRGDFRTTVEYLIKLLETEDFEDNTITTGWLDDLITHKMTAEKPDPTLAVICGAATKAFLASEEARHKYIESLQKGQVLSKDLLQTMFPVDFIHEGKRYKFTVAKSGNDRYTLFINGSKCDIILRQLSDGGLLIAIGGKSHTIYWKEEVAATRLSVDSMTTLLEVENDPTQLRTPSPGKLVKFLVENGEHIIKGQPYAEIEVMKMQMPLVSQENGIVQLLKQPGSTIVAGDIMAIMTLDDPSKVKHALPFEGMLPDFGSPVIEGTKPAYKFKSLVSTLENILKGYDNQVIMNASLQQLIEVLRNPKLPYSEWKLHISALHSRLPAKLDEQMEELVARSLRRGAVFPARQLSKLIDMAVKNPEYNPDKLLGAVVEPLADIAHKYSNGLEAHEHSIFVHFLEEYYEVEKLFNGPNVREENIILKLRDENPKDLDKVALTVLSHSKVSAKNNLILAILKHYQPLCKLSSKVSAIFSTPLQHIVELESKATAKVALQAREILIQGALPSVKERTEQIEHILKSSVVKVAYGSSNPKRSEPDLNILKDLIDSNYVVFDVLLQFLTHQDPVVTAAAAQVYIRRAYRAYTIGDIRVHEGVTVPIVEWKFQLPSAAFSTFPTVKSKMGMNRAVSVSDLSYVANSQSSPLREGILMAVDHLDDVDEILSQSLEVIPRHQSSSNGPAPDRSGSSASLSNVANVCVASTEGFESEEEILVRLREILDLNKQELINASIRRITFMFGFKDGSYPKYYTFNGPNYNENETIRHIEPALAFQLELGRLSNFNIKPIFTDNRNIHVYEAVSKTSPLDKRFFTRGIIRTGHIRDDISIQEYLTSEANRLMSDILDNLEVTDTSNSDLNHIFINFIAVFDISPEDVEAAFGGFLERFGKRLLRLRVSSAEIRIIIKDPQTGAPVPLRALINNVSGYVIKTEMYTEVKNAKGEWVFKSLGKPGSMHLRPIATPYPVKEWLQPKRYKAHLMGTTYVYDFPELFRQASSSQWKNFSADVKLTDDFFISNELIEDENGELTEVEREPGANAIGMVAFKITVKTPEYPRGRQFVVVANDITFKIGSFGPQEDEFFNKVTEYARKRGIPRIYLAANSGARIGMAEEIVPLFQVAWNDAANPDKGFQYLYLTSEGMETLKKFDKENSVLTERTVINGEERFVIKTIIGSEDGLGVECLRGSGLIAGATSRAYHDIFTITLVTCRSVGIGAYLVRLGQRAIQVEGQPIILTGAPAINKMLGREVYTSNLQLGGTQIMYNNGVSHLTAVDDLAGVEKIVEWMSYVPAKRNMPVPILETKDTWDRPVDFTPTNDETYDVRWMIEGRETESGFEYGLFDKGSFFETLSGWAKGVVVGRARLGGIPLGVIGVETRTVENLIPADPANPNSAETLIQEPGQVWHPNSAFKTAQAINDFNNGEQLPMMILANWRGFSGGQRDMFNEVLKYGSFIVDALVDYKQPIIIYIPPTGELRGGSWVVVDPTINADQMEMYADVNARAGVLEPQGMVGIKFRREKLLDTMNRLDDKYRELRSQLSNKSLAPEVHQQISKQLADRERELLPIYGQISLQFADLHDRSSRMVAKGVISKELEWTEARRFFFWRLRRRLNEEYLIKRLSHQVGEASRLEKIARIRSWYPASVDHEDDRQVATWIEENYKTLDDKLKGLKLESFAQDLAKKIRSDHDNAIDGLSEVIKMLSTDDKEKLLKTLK

Ustilago ACCase = conditions: published value (Behrbohm thesis 1996); read-out: Ki for soraphen inhibition of Ustilago ACCase activity; cited from earlier work
[7] = molecular target: WT enzyme (endogenous ACCase, wild type yeast) (Saccharomyces cerevisiae, UniProt Q00955); conditions: cited from earlier work
Chain of WT enzyme (endogenous ACCase, wild type yeast) (Q00955 whole entry): as above

[8] = tested on: Mutant enzyme (endogenous ACCase, mutant yeast); conditions: cited from earlier work
[9] = molecular target: human ACC1 BC domain (pCS19) (Homo sapiens, UniProt Q13085, Q299K); experiment: soraphen binding, human ACC1 BC domain
E. coli BC (pCS201) = E. coli BC (pCS201) (Escherichia coli, UniProt P24182); experiment: 3H-soraphen binding, negative control pCS201
[10] = molecular target: S. cerevisiae ACCase BC domain, wild type (pCS16), N-terminal His-tag (Saccharomyces cerevisiae, UniProt Q00955); experiment: biochemical; type: binding
Chain of S. cerevisiae ACCase BC domain, wild type (pCS16), N-terminal His-tag (Q00955 2-581): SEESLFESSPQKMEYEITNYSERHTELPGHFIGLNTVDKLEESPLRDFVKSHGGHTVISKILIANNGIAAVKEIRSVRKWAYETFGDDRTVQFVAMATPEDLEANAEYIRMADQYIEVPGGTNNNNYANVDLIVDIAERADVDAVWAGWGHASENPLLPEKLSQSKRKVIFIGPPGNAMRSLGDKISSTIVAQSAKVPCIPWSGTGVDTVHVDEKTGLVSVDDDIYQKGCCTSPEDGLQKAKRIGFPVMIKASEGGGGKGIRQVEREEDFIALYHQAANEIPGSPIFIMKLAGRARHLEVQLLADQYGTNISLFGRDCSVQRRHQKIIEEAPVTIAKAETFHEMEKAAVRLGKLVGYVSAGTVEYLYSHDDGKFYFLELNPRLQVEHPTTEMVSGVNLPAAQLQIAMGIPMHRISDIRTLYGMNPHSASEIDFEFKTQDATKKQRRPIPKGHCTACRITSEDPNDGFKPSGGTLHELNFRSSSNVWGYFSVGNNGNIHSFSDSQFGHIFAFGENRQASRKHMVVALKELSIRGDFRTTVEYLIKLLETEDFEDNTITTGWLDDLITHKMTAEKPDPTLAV

[11] = molecular target: full-length Ustilago ACCase (pCS11 protein), C-terminal His-tag (Mycosarcoma maydis, UniProt A0A0D1DYD5); experiment: biochemical
[12] = molecular target: Phytophthora infestans ACCase BC domain, amino acids 1-555 (pCS15) (Phytophthora infestans, UniProt D0NZ18); experiment: biochemical; type: binding
[13] = molecular target: Magnaporthe grisea ACCase BC domain (pCS17), N-terminal His-tag (Pyricularia oryzae, UniProt G4N2L8); experiment: biochemical; type: binding
[14] = molecular target: human ACC1 BC domain (pCS19), C-terminal His-tag (Homo sapiens, UniProt Q13085, Q299K); experiment: biochemical; type: binding

For `CO[C@H]1CCCC[C@@H](c2ccccc2)OC(=O)[C@@H](C)[C@@]2(O)O[C@H]([C@@H](C)[C@H](O)[C@H]2OC)[C@@H](C)/C=C/[C@H]1OC` [soraphen A], the Kd [1] was 1.5 nM, the Kd [2] was 1.6 nM and the “half-life of dissociation (off rate)” value ([3]; 3H-soraphen displaced with 2 μM cold soraphen) was 10.7 min. For the same compound, the “kon (on-rate)” value ([3]; calculated from Kd=koff/kon) was 931000 M⁻¹ s⁻¹, the Ki (BC domain (pCS8)) was 1.1 nM and the “soraphen binding to Phytopthora BC domain” value [4] was “high-affinity”. The “soraphen binding to Magnaporthe BC domain” value [5] was “high affinity”, the “Relative Enzymatic Activity (%), pCS204” value ([6]; +1.5 ng/mL soraphen A) was 92.0% and the “Relative Enzymatic Activity (%), pCS204” value ([6]; +1.5 μg/mL soraphen A) was 11.6%. For the same compound, the “Relative Enzymatic Activity (%), pCS204” value ([6]; +150 μg/mL soraphen A) was 7.5%, the Ki (Ustilago ACCase) was 1.4 nM and the “Relative Enzymatic Activity (%), WT enzyme” value ([7]; +1.5 ng/mL soraphen A) was 71.8%. For the same compound, the “Relative Enzymatic Activity (%), WT enzyme” value ([7]; +1.5 μg/mL soraphen A) was 1.0%, the “Relative Enzymatic Activity (%), WT enzyme” value ([7]; +150 μg/mL soraphen A) was 0.8% and the “Relative Enzymatic Activity (%), Mutant enzyme” value ([8]; +1.5 ng/mL soraphen A) was 79.4%. The “Relative Enzymatic Activity (%), Mutant enzyme” value ([8]; +1.5 μg/mL soraphen A) was 74.9%, the “Relative Enzymatic Activity (%), Mutant enzyme” value ([8]; +150 μg/mL soraphen A) was 74.7% and the “soraphen binding to purified pCS19 protein” value [9] was “high affinity”. The “soraphen binding to pCS201” value (E. coli BC (pCS201)) was “did not exhibit high affinity soraphen binding”.

For “avidin: avidin, inhibitor of the biotin-dependent ACCase activity in Table 4”, the “Relative Enzymatic Activity (%), pCS204” value ([6]; +250 μg/ml avidin) is given as 2.1%, the “Relative Enzymatic Activity (%), WT enzyme” value ([7]; +250 μg/ml avidin) is given as 0.4% and the “Relative Enzymatic Activity (%), Mutant enzyme” value ([8]; +250 μg/ml avidin) is given as 0.1%.

`CO[C@H]1CCCC[C@@H](c2ccccc2)OC(=O)[C@@H](C)[C@@]2(O)O[C@H]([C@@H](C)[C@H](O)[C@H]2OC)[C@@H](C)/C=C/[C@H]1OC` [Soraphen, soraphen A] showed a Kd [10] of 1.3 nM, a Ki [11] of 2.2 nM and a Kd [12] of 0.4 nM. The Kd [13] was 0.4 nM and the Kd [14] was 0.7 nM.
